Assay results as given in patent US12655116B2, “Substituted isophthalic acid diamides” (Bayer Aktiengesellschaft, priority 2020, dated 2026).

What was measured:
ABUTH [1] = assay: Pre-emergence herbicidal action against ABUTH; assay type: in vivo, Abutilon theophrasti; settings: Abutilon theophrasti, 504 h
In short: (§1)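 Pre-emergence soil-surface spray of formulated compound (WP or EC; 600 to 800 l/ha; 0.2% wetting agent) over seeds sown in sandy loam. After 3 weeks under greenhouse conditions, damage is estimated visually in percent against untreated plants.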

AVEFA [2] = assay: Pre-emergence herbicidal action against AVEFA; assay type: in vivo, Avena fatua; settings: Avena fatua, 504 h, pre-emergence
In short: as §1

ECHCG [3] = assay: Pre-emergence herbicidal action against ECHCG; assay type: in vivo, Echinochloa crus-galli; settings: Echinochloa crus-galli, 504 h
In short: as §1

HORMU [4] = assay: Pre-emergence herbicidal action against HORMU; assay type: in vivo, Hordeum murinum; settings: Hordeum murinum, 504 h, pre-emergence
In short: as §1

LOLRI [5] = assay: Pre-emergence herbicidal action against LOLRI; assay type: in vivo, Lolium rigidum; settings: Lolium rigidum, 504 h
In short: as §1

MATIN [6] = assay: Pre-emergence herbicidal action against MATIN; assay type: in vivo, Matricaria inodora; settings: Tripleurospermum inodorum, 504 h
In short: as §1

POLCO [7] = assay: Pre-emergence herbicidal action against POLCO; assay type: in vivo, Polygonum convolvulus; settings: Fallopia convolvulus, 504 h
In short: as §1

STEME [8] = assay: Pre-emergence herbicidal action against STEME; assay type: in vivo, Stellaria media; settings: Stellaria media, 504 h
In short: as §1

VERPE [9] = assay: Pre-emergence herbicidal action against VERPE; assay type: in vivo, Veronica persica; settings: Veronica persica, 504 h
In short: as §1

ABUTH [10] = assay: Post-emergence herbicidal action against ABUTH; assay type: in vivo, Abutilon theophrasti; settings: Abutilon theophrasti, 504 h, visual assessment about 3 weeks after treatment vs untreated controls
In short: (§2)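 Spray, one-leaf stage: WP or EC compound in water, 600–800 l/ha, 0.2% wetting agent. Plants held about 3 weeks in the greenhouse, then visually rated in percent of kill compared with untreated controls.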

ALOMY = assay: Post-emergence herbicidal action against ALOMY; assay type: in vivo, Alopecurus myosuroides; settings: Alopecurus myosuroides, 504 h, visual assessment about 3 weeks after treatment vs untreated controls
In short: as §2

AMARE = assay: Post-emergence herbicidal action against AMARE; assay type: in vivo, Amaranthus retroflexus; settings: Amaranthus retroflexus, 504 h, visual assessment about 3 weeks after treatment, 100% = plants have died, 0% = like control plants
In short: as §2

AVEFA [11] = assay: Post-emergence herbicidal action against AVEFA; assay type: in vivo, Avena fatua; settings: Avena fatua, 504 h, visual assessment about 3 weeks after treatment, 100% = plants have died, 0% = like control plants
In short: as §2

ECHCG [12] = assay: Post-emergence herbicidal action against ECHCG; assay type: in vivo, Echinochloa crus-galli; settings: Echinochloa crus-galli, 504 h
In short: as §2

HORMU [13] = assay: Post-emergence herbicidal action against HORMU; assay type: in vivo, Hordeum murinum; settings: Hordeum murinum, 504 h
In short: as §2

LOLRI [14] = assay: Post-emergence herbicidal action against LOLRI; assay type: in vivo, Lolium rigidum; settings: Lolium rigidum, 504 h
In short: as §2

MATIN [15] = assay: Post-emergence herbicidal action against MATIN; assay type: in vivo, Matricaria inodora; settings: Tripleurospermum inodorum, 504 h
In short: as §2

PHBPU = assay: Post-emergence herbicidal action against PHBPU; assay type: in vivo, Pharbitis purpurea; settings: Ipomoea purpurea, 504 h
In short: as §2

POLCO [16] = assay: Post-emergence herbicidal action against POLCO; assay type: in vivo, Polygonum convolvulus; settings: Fallopia convolvulus, 504 h, dosage 80 g/ha
In short: as §2

SETVI = assay: Post-emergence herbicidal action against SETVI; assay type: in vivo, Setaria viridis; settings: Setaria viridis, 504 h
In short: as §2

STEME [17] = assay: Post-emergence herbicidal action against STEME; assay type: in vivo, Stellaria media; settings: Stellaria media, 504 h
In short: as §2

VERPE [18] = assay: Post-emergence herbicidal action against VERPE; assay type: in vivo, Veronica persica; settings: Veronica persica, 504 h
In short: as §2

VIOTR = assay: Post-emergence herbicidal action against VIOTR; assay type: in vivo, Viola tricolor; settings: Viola tricolor, 504 h
In short: as §2

CNC(=O)c1c(C(F)(F)F)ccc(C(=O)Nc2nnnn2C)c1Cl [Example 1-129]
pest or weed control at 80 g/ha (ABUTH [1]; 80 g/ha, scored visually after 3 weeks vs untreated controls (100% = plants have died, 0% = like control plants)): 100% | pest or weed control at 320 g/ha (ABUTH [1]; Dosage: 320 g/ha, scored visually after 3 weeks, 100% = plants have died, 0% = like control plants): 100% | pest or weed control at 20 g/ha (ABUTH [1]; dosage 20 g/ha, scored visually after 3 weeks vs untreated controls, 100% = plants have died, 0% = like control plants, read-out: Pre-emergence action against ABUTH (herbicidal activity in percent)): 100% | pest or weed control at 80 g/ha (AVEFA [2]; 80 g/ha): 100% | pest or weed control at 20 g/ha (AVEFA [2]; 20 g/ha, scored visually after 3 weeks, 100% = plants have died, 0% = like control plants): 100% | pest or weed control at 320 g/ha (AVEFA [2]; 320 g/ha, scored visually after 3 weeks, 100% = plants have died, 0% = like control plants): 100% | pest or weed control at 20 g/ha (ECHCG [3]; 20 g/ha): 80% | pest or weed control at 80 g/ha (ECHCG [3]; 80 g/ha): 100% | pest or weed control at 320 g/ha (ECHCG [3]; 320 g/ha): 100% | pest or weed control at 80 g/ha (HORMU [4]; 80 g/ha): 90% | pest or weed control at 320 g/ha (HORMU [4]; 320 g/ha): 100% | pest or weed control at 80 g/ha (LOLRI [5]; 80 g/ha): 90% | pest or weed control at 320 g/ha (LOLRI [5]; 320 g/ha): 100% | pest or weed control at 20 g/ha (MATIN [6]; dosage 20 g/ha): 100% | pest or weed control at 80 g/ha (MATIN [6]; dosage 80 g/ha): 100% | pest or weed control at 320 g/ha (MATIN [6]; dosage 320 g/ha): 100% | pest or weed control at 80 g/ha (POLCO [7]; dosage 80 g/ha): 100% | pest or weed control at 320 g/ha (POLCO [7]; dosage 320 g/ha): 100% | pest or weed control at 20 g/ha (STEME [8]; dosage 20 g/ha): 100% | pest or weed control at 80 g/ha (STEME [8]; dosage 80 g/ha): 100% | pest or weed control at 320 g/ha (STEME [8]; dosage 320 g/ha): 100% | pest or weed control at 80 g/ha (VERPE [9]; dosage 80 g/ha): 100% | pest or weed control at 320 g/ha (VERPE [9]; dosage 320 g/ha): 100% | pest or weed control at 5 g/ha (ABUTH [10]; dosage 5 g/ha): 100% | pest or weed control at 20 g/ha (ABUTH [10]; dosage 20 g/ha): 100% | pest or weed control at 80 g/ha (ABUTH [10]; dosage 80 g/ha): 100% | pest or weed control at 5 g/ha (ALOMY; dosage 5 g/ha): 90% | pest or weed control at 20 g/ha (ALOMY; dosage 20 g/ha): 100% | pest or weed control at 80 g/ha (ALOMY; dosage 80 g/ha): 100% | pest or weed control at 20 g/ha (AMARE; 20 g/ha): 100% | pest or weed control at 80 g/ha (AMARE; 80 g/ha): 100% | pest or weed control at 20 g/ha (AVEFA [11]; 20 g/ha): 100% | pest or weed control at 80 g/ha (AVEFA [11]; 80 g/ha): 100% | pest or weed control at 5 g/ha (ECHCG [12]; dosage 5 g/ha): 100% | pest or weed control at 20 g/ha (ECHCG [12]; dosage 20 g/ha): 100% | pest or weed control at 80 g/ha (ECHCG [12]; dosage 80 g/ha): 100% | pest or weed control at 5 g/ha (HORMU [13]; dosage 5 g/ha): 90% | pest or weed control at 20 g/ha (HORMU [13]; dosage 20 g/ha): 100% | pest or weed control at 80 g/ha (HORMU [13]; dosage 80 g/ha): 100% | pest or weed control at 5 g/ha (LOLRI [14]; dosage 5 g/ha): 80% | pest or weed control at 20 g/ha (LOLRI [14]; dosage 20 g/ha): 100% | pest or weed control at 80 g/ha (LOLRI [14]; dosage 80 g/ha): 100% | pest or weed control at 20 g/ha (MATIN [15]; dosage 20 g/ha): 90% | pest or weed control at 80 g/ha (MATIN [15]; dosage 80 g/ha): 100% | pest or weed control at 5 g/ha (PHBPU; dosage 5 g/ha): 80% | pest or weed control at 20 g/ha (PHBPU; dosage 20 g/ha): 100% | pest or weed control at 80 g/ha (PHBPU; dosage 80 g/ha): 100% | pest or weed control at 80 g/ha (POLCO [16]): 100% | pest or weed control at 5 g/ha (SETVI; dosage 5 g/ha): 100% | pest or weed control at 20 g/ha (SETVI; dosage 20 g/ha): 100% | pest or weed control at 80 g/ha (SETVI; dosage 80 g/ha): 100% | pest or weed control at 20 g/ha (STEME [17]; 20 g/ha): 100% | pest or weed control at 80 g/ha (STEME [17]; 80 g/ha): 100% | pest or weed control at 5 g/ha (STEME [17]; dosage 5 g/ha): 100% | pest or weed control at 5 g/ha (VERPE [18]; 5 g/ha): 80% | pest or weed control at 20 g/ha (VERPE [18]; 20 g/ha): 80% | pest or weed control at 80 g/ha (VERPE [18]; 80 g/ha): 100% | pest or weed control at 5 g/ha (VIOTR; 5 g/ha): 80% | pest or weed control at 20 g/ha (VIOTR; 20 g/ha): 100% | pest or weed control at 80 g/ha (VIOTR; 80 g/ha): 100%
